{
  "source": "ChEMBL document CHEMBL1150207",
  "about": "“Cytotoxicities of some flavonoid analogues” (1991)",
  "format_in_all_cases": "functional",
  "key": {"HT-29": {"system": "HT-29", "test": "Cytotoxicity against human HT-29 cells after 6 days by MTT assay", "conditions": "HT-29, 144 h, read-out: ED50 (the source's name)"}, "MCF7": {"system": "MCF7", "test": "Cytotoxicity against human MCF7 cells after 6 days by MTT assay", "conditions": "MCF7, 144 h, read-out: ED50 (the source's name)"}, "Malme-3M": {"system": "Malme-3M", "test": "Cytotoxicity against human MALME-3M cells after 6 days by MTT assay", "conditions": "144 h, read-out: ED50 (the source's name)"}, "SK-MEL": {"system": "SK-MEL", "test": "Cytotoxicity against human SK-MEL cells after 6 days by MTT assay", "conditions": "144 h, read-out: ED50 (the source's name)"}, "A549": {"system": "A549", "test": "Cytotoxicity against human A549 cells after 6 days by MTT assay", "conditions": "A549, 144 h, read-out: ED50 (the source's name)"}},
  "data": [
    {"smiles": "O=c1cc(-c2cccc(O)c2)oc2c(O)c(O)ccc12", "values": [
      {"measurement": "EC50", "setting": "HT-29", "result": 4.18, "unit": "µg/mL"},
      {"measurement": "EC50", "setting": "MCF7", "result": 3.71, "unit": "µg/mL"},
      {"measurement": "EC50", "setting": "Malme-3M", "result": 4.8, "unit": "µg/mL"},
      {"measurement": "EC50", "setting": "SK-MEL", "result": 3.66, "unit": "µg/mL"},
      {"measurement": "EC50", "setting": "A549", "result": 4.65, "unit": "µg/mL"}
    ]},
    {"smiles": "O=c1cc(-c2cccc(O)c2)oc2cc(O)ccc12", "values": [
      {"measurement": "EC50", "setting": "HT-29", "result": "> 25", "unit": "µg/mL"},
      {"measurement": "EC50", "setting": "MCF7", "result": "> 25", "unit": "µg/mL"},
      {"measurement": "EC50", "setting": "Malme-3M", "result": "> 25", "unit": "µg/mL"},
      {"measurement": "EC50", "setting": "SK-MEL", "result": 5.11, "unit": "µg/mL"},
      {"measurement": "EC50", "setting": "A549", "result": "> 25", "unit": "µg/mL"}
    ]}
  ]
}
